Assay results from paper PMC12163635, “Synthetic Retinoids for the Modulation of Genomic and Nongenomic Processes in Neurodegenerative Diseases” (ACS Omega, 2025).

Columns and labels:
[1] = test system: Sil-15 cells containing a RARE driving a lacZ reporter; test: X-Gal-based RA reporter assay (genomic response); assay type: cell-based; set-up: genomic response Emax (±95% CI): unit not given here; conditions: for genomic response Emax (±95% CI) / EC50: Sil-15 reporter cells; for genomic response Emax (±95% CI): absorbance at 650 nm; for EC50: read-out: genomic response EC50 (±95% CI), overnight, 10^–6 to 10^–14 M; for genomic EC50 compared with ATRA: nonoverlapping 95% CI
Description: Following chemical design and synthesis, the synthetic retinoid library was screened for genomic and nongenomic biological activities and compared to the response of the endogenous retinoid, ATRA. In these assays, the EC50 value represented the concentration of retinoid that gave half-maximal response (potency), while the E max value represented the maximum response achievable from the retinoid (efficacy).
The transcriptional genomic activity of the retinoids was quantified using Sil-15 cells containing a RARE driving a lacZ reporter. […] Twenty-two of the synthetic retinoids were effective in inducing genomic activity. […] In addition, the retinoids varied in their efficacies.
The Sil-15 cell line was used in the X-gal RA reporter assay described below. The cells were grown in Dulbecco’s modified Eagle’s medium (DMEM) containing 10% fetal bovine serum (FCS) (Invitrogen/Gibco), 0.6% penicillin-streptomycin (Gibco) and 0.8 mg/mL G418 sulfate (Sigma) for selection. They were maintained in a humidified atmosphere containing 5% CO2 at 37 °C. The medium was changed three times a week and the cells were passaged at 70% confluence using 0.05% trypsin-EDTA.
Sil-15 cells are F9 teratocarcinoma cells stably transfected with a plasmid containing the LacZ gene under the control of a DR5-type RA response element (RARE). The reporter cell line was used to detect the transcriptional genomic activity of ATRA and other retinoids by colorimetrically quantifying the insoluble blue product generated by β-galactosidase from X-gal during the assay. The assay was performed by plating 100,000 cells per well in the 0.1% gelatin-coated 96-well plates and leaving them to attach overnight. The ATRA/retinoids dilutions ranging from 10^–6 to 10^–14 M were incubated on the reporter cells overnight at 37 °C, in 5% CO2. A standard curve of ATRA was included in each experiment to ensure the reproducibility of the results between assays performed on different days. All the assays for ATRA as well as the retinoids were quantified in triplicate. Serial dilutions of retinoids were prepared from a stock solution under red/orange light. The stock solutions prepared in DMSO for each retinoid varied depending on the solubility of each compound. Each stock was stored at −20 °C and protected from light. The next day, Sil-15 cells were washed with PBS, fixed with 1% glutaraldehyde and 1 mM MgCl2 solution for 15 min, and developed in X-gal developing solution (0.2% X-Gal, 1 mM MgCl2, 3.3 mM potassium ferricyanide and 3.3 mM potassium ferrocyanide in PBS). The plates were read on an E max microplate reader (Molecular Devices) at 650 nm.
(§1) All data are presented as mean ± SEM of three independent experiments with biological triplicates. Statistical analyses were performed in Microsoft Office Excel 2019 or GraphPad Prism 7.0c version (Prism, GraphPad Software, San Diego, CA). Neurite outgrowth data were analyzed by one-way ANOVA with Newman-Keuls multiple comparison test as appropriate; P value <0.05 was considered statistically significant. *P < 0.05, **P < 0.01. Data for X-Gal and ERK1/2 phosphorylation were analyzed using sigmoidal dose–response analysis of log (agonist) versus response curve (stimulation).

SH-SY5Y cells = test: Neurite outgrowth; assay type: cell-based, human; conditions: 10 nM, 5 days
Protocol: Following the characterization of retinoids for their genomic and nongenomic activities, the ability of retinoids to differentiate and induce neurite outgrowth in the neuroblastoma cell line, SH-SY5Y cells, was examined (Figure ). Neurite outgrowth can be induced in this cell line by ATRA at 10 μM.
(§2) SH-SY5Y cell line as used in ERK phosphorylation and neurite outgrowth assays described below. The cells were grown in DMEM containing 10% FCS at 37 °C with 5% CO2. The medium was changed three times a week and the cells were passaged at 70% confluence using 0.05% trypsin-EDTA.
SH-SY5Y cells were plated at 10,000 cells/well in 12-well plates containing 16 mm acid-treated/poly L-lysine-coated glass coverslips. After 24 h, retinoids were added to the medium and tested at two different concentrations, 10 μM and 10 nM, with a final DMSO concentration of 0.01 or 0.0001%, respectively. The plates were incubated for 5 days at 5% CO2/37 °C. All retinoid concentrations were tested in triplicate. Cells were fixed using 4% paraformaldehyde and stained for β-III tubulin (1:1000; Sigma). For each neurite outgrowth experiment, 3 coverslips (in 3 wells) were used. ImageJ software with the NeuronJ plugin was used to quantify neurite outgrowth on stained cells in each of the 10 randomly selected images of each coverslip taken using a Nikon Eclipse E400 fluorescence microscope. The average neurite length was calculated for each image by dividing total neurite length by the total number of neurites per image.
as §1

[2] = test system: ERK1/2 phosphorylation in SH-SY5Y cells; test: ERK1/2 phosphorylation (nongenomic response), AlphaScreen SureFire; assay type: cell-based, human; conditions: for EC50: Homo sapiens, read-out: nongenomic response EC50 (±95% CI); for EC50 / nongenomic response Emax (±95% CI): SH-SY5Y cells, 1 h; for nongenomic E max compared with ATRA: nonoverlapping 95% CI
Protocol: After screening the retinoids for genomic responses, they were tested for their nongenomic ability to rapidly phosphorylate ERK1/2 in the SH-SY5Y cell line. ATRA is known as a potent activator of ERK1/2 − and was used as the standard for comparison. […] The efficacies of the remaining seven retinoids were similar to ATRA.
as §2
To quantify ERK1/2 phosphorylation, SH-SY5Y cells (100,000 cells/well) were plated onto 96-well plates and serum-starved for 24 h in DMEM. Cells were assayed in serum-free DMEM and stimulated for 60 min at 37 °C in a humidified atmosphere. Retinoids were tested at concentrations ranging from 10 to 4 to 10–11 M and at a final concentration of 0.1% DMSO. At the end of the assay, the medium was removed, and cells were lysed with lysis buffer supplied in the AlphaScreen SureFire ERK1/2 kit (PerkinElmer). The assay was performed in 384-well white Proxiplates according to the manufacturer’s instructions and using the beads supplied in the protein A general IgG detection kit (PerkinElmer). Briefly, 4 μL samples were incubated with 7 μL of the freshly prepared mixture containing donor and acceptor beads. Plates were incubated at room temperature and read with the Envision system (PerkinElmer Life Sciences) using AlphaScreen settings.
as §1

| EC50 [1] [nM] | EC50 [2] [nM] | Structure (SMILES) | genomic response Emax (±95% CI) [1] | induction of neurite outgrowth compared with ATRA (SH-SY5Y cells) | nongenomic response Emax (±95% CI) [2] | genomic EC50 compared with ATRA [1] | nongenomic E max compared with ATRA [2] |
| --- | --- | --- | --- | --- | --- | --- | --- |
| 1.04 | 33.1 | CC1=C(/C=C/C(C)=C/C=C/C(C)=C/C(=O)O)C(C)(C)CCC1 [ATRA, all-trans retinoic acid, reference compound] | 170 (±5.65) | does not significantly induce such outgrowth | 48.6 (±1.85) | – | – |
| 5.31 | 90.8 | COc1cc2c(cc1C#Cc1ccc(C(=O)O)cc1F)C(C)(C)CCC2(C)C [Compound 21, 3-Fluoro-4-[2-(3-methoxy-5,5,8,8-tetramethyl-5,6,7,8-tetrahydronaphthalen-2-yl)ethynyl]benzoic Acid] | – | induced neurite outgrowth but not significantly compared to ATRA | 36.9 (±2.86) | significantly higher EC50 values than ATRA | E max values significantly lower than ATRA |
| 0.128 | 30.6 | CC1(C)CCC(C)(C)c2cc(C#Cc3ccc(C(=O)O)cc3)ccc21 [EC23, reference compound] | 169 (±10.8) | induced significant neurite outgrowth compared to ATRA | 92.5 (±6.96) | significantly lower EC50 than ATRA | E max values significantly higher than ATRA |
